Source: the kinase profiling compilation of Christmann-Franck et al. (2016)

How the values were obtained:
Assay in all cases: radiometric filter-binding kinase assay, Kinase HotSpot
Conditions in all cases: compound 0.5 µM; ATP 10 µM
[1] = target: BRAF (human) (UniProt P15056)
[2] = target: CAMK1 (human) (UniProt Q14012)
[3] = target: CDK1 CCNA2 (human) (UniProt P06493+P20248)
[4] = target: CDK6 CCND3 (human) (UniProt P30281+Q00534)
[5] = target: CHUK (human) (UniProt O15111)
[6] = target: CLK3 (human) (UniProt P49761)
[7] = target: CSNK1D (human) (UniProt P48730)
[8] = target: DAPK3 (human) (UniProt O43293)
[9] = target: DMPK (human) (UniProt Q09013)
[10] = target: EPHA3 (human) (UniProt P29320)
[11] = target: EPHA6 (human) (UniProt Q9UF33)
[12] = target: GSK3B (human) (UniProt P49841)
[13] = target: HIPK3 (human) (UniProt Q9H422)
[14] = target: IKBKB (human) (UniProt O14920)
[15] = target: IKBKE (human) (UniProt Q14164)
[16] = target: MAP3K7 TAB1 (human) (UniProt O43318+Q15750)
[17] = target: MAP3K8 (human) (UniProt P41279)
[18] = target: MAP4K4 (human) (UniProt O95819)
[19] = target: MAP4K5 (human) (UniProt Q9Y4K4)
[20] = target: MAPK10 (human) (UniProt P53779)
[21] = target: MAPK11 (human) (UniProt Q15759)
[22] = target: MAPK3 (human) (UniProt P27361)
[23] = target: MAPKAPK3 (human) (UniProt Q16644)
[24] = target: NEK9 (human) (UniProt Q8TD19)
[25] = target: NUAK2 (human) (UniProt Q9H093)
[26] = target: PAK1 (human) (UniProt Q13153)
[27] = target: PDPK1 (human) (UniProt O15530)
[28] = target: PRKACA (human) (UniProt P17612)
[29] = target: PRKCB2 (human) (UniProt P05771)
[30] = target: PRKCH (human) (UniProt P24723)
[31] = target: PTK2B (human) (UniProt Q14289)
[32] = target: PTK6 (human) (UniProt Q13882)
[33] = target: RAF1 (human) (UniProt P04049)
[34] = target: RPS6KA6 KD1 KD2 (human) (UniProt Q9UK32)
[35] = target: SRPK2 (human) (UniProt P78362)
[36] = target: STK24 (human) (UniProt Q9Y6E0)
[37] = target: STK38 (human) (UniProt Q15208)
[38] = target: SYK (human) (UniProt P43405)
[39] = target: TGFBR2 (human) (UniProt P37173)
[40] = target: TLK2 (human) (UniProt Q86UE8)
[41] = target: ULK3 (human) (UniProt Q6PHR2)
[42] = target: WNK3 (human) (UniProt Q9BYP7)

Chain of IKBKB (human) (O14920 whole entry, looked up): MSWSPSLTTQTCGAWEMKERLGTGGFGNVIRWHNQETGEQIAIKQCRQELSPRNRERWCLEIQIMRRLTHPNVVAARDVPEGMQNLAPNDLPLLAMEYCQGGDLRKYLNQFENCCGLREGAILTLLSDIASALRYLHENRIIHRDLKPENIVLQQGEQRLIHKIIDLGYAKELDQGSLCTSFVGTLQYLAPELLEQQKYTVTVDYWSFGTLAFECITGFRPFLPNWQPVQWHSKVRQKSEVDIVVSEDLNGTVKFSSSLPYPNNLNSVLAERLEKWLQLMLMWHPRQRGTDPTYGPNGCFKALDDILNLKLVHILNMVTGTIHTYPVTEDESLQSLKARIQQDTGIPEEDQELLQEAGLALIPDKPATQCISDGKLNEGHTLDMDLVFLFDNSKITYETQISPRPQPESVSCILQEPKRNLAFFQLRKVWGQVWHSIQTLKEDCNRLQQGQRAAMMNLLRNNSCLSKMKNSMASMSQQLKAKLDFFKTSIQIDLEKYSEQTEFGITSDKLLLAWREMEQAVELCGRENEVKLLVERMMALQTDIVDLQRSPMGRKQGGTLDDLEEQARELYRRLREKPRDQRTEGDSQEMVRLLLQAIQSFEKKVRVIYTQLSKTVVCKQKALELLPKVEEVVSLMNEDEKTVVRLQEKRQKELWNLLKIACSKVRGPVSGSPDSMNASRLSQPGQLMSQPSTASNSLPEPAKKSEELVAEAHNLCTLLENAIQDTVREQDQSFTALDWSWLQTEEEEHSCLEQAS
Chain of MAP3K7 TAB1 (human) (O43318 whole entry, looked up): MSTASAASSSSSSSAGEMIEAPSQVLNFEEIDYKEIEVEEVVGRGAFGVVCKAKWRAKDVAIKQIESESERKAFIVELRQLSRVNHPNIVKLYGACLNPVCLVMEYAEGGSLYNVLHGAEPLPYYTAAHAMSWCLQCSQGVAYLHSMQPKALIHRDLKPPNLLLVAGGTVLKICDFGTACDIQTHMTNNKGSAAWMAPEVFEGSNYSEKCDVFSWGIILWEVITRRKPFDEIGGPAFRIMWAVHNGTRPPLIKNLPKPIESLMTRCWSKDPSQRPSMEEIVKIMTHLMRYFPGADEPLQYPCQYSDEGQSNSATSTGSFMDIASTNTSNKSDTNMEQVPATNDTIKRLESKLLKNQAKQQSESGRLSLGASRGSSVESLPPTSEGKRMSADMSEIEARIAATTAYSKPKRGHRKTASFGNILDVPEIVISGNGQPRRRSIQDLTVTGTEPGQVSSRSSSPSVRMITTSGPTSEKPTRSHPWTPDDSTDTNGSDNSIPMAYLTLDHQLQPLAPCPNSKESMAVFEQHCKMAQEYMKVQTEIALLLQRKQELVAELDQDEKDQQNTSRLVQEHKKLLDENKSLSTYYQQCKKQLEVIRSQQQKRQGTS
Chain of MAP3K7 TAB1 (human) (Q15750 whole entry, looked up): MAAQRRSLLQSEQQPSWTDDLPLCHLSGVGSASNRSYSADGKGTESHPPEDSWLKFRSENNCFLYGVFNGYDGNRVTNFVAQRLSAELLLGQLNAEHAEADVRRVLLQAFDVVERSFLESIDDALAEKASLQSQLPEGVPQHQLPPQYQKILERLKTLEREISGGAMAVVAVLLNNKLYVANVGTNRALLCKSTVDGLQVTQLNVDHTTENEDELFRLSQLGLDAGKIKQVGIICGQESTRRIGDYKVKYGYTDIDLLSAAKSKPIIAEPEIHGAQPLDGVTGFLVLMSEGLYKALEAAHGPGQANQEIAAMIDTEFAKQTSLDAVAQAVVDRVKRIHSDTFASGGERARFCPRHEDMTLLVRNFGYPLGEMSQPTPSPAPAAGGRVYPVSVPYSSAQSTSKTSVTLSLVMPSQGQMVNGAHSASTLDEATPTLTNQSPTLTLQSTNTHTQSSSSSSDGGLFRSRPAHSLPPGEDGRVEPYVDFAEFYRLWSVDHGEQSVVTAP
Chain of MAPK3 (human) (P27361 whole entry, looked up): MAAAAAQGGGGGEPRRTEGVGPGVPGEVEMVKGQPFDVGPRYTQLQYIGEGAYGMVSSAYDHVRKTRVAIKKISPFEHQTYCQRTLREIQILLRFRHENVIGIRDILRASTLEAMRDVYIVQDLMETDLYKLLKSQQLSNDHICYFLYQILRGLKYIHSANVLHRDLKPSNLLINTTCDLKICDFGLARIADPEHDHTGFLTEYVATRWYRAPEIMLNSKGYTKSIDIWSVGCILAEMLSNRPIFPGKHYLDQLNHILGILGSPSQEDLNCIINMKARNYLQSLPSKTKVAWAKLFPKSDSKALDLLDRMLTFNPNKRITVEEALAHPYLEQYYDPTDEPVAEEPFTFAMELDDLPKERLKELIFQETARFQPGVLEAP
Chain of TGFBR2 (human) (P37173 whole entry, looked up): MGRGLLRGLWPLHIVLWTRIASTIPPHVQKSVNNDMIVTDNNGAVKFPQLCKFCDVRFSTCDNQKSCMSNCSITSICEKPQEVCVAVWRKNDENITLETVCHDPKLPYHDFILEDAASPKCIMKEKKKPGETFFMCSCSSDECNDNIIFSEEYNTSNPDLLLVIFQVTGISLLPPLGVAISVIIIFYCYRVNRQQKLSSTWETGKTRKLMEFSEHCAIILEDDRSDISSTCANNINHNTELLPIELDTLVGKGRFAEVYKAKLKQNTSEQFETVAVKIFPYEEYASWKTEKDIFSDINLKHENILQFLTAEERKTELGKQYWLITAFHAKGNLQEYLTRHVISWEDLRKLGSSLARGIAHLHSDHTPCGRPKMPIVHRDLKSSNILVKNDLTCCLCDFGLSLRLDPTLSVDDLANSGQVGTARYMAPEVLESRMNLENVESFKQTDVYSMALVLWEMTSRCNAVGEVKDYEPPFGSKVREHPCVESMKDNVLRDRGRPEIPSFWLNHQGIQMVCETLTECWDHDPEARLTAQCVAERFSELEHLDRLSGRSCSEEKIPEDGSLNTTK
Chain of CDK1 CCNA2 (human) (P06493 whole entry, looked up): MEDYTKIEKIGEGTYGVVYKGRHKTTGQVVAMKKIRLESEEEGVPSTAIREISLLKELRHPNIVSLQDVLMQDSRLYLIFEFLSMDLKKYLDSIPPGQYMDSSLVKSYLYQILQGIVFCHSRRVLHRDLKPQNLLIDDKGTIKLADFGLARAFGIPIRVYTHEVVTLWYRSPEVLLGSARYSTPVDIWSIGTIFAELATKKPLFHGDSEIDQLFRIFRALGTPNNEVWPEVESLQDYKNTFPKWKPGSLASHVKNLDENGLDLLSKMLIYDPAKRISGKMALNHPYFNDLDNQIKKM
Chain of CDK1 CCNA2 (human) (P20248 whole entry, looked up): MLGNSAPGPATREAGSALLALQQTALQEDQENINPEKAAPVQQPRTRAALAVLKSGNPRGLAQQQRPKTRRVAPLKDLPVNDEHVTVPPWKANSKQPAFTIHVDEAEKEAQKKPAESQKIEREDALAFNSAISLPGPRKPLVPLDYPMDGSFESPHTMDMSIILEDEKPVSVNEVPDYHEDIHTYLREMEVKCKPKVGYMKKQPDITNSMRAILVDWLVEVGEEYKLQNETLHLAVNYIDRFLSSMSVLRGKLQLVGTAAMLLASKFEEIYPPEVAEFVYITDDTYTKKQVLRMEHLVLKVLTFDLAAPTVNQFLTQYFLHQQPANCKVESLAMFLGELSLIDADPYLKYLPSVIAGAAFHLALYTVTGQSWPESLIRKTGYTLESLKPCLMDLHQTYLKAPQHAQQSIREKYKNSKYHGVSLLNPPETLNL
Chain of IKBKE (human) (Q14164 whole entry, looked up): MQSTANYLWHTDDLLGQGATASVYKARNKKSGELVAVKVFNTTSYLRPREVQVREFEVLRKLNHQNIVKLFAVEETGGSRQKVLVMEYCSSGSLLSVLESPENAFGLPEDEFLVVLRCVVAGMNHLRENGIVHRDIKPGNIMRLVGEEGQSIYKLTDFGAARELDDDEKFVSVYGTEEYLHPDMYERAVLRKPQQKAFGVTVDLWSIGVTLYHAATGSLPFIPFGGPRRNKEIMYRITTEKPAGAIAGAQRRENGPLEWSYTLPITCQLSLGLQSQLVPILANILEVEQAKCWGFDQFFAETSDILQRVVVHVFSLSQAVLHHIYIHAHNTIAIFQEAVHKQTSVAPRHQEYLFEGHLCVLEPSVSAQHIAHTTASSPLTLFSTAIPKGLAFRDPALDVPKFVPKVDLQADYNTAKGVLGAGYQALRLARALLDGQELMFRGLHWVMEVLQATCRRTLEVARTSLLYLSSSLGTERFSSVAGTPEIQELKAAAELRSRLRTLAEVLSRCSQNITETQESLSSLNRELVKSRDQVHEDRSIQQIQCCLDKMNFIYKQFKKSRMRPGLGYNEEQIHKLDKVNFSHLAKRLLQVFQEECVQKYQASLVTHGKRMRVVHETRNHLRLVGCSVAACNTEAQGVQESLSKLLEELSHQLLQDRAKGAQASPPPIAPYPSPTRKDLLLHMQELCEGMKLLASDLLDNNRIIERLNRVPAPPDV
Chain of MAPK11 (human) (Q15759 whole entry, looked up): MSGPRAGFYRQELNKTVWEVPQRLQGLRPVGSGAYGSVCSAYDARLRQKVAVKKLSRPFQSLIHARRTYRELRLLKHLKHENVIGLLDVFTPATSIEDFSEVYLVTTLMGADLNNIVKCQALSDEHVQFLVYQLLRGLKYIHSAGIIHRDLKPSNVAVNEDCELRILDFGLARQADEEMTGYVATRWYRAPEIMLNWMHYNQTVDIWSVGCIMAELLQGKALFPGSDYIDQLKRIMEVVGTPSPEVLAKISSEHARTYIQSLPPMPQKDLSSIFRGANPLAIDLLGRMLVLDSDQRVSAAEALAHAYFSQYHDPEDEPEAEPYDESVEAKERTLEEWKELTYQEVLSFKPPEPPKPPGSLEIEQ
Chain of CAMK1 (human) (Q14012 whole entry, looked up): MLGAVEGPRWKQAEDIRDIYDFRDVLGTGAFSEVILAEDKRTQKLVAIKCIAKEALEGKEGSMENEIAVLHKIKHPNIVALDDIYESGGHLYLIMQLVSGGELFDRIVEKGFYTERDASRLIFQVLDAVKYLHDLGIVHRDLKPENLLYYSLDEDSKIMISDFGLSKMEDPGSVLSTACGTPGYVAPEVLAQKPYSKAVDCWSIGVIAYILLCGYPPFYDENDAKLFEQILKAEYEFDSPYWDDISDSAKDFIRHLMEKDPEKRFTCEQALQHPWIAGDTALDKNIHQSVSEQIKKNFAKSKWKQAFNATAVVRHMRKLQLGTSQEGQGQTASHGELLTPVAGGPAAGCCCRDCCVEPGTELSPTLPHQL

N#Cc1c[nH]c2c[nH]/c(=N\Cc3cccnc3)cc2/c1=N\c1ccc(F)c(Cl)c1
residual activity [1]: 106% | residual activity [2]: 99.1% | residual activity [3]: 88% | residual activity [4]: 88.8% | residual activity [5]: 96.3% | residual activity [6]: 96.7% | residual activity [7]: 88.4% | residual activity [8]: 101% | residual activity [9]: 104% | residual activity [10]: 122% | residual activity [11]: 76.2% | residual activity [12]: 99.8% | residual activity [13]: 96.5% | residual activity [14]: 103% | residual activity [15]: 90.6% | residual activity [16]: 89.5% | residual activity [17]: 79.1% | residual activity [18]: 44.4% | residual activity [19]: 61.7% | residual activity [20]: 95% | residual activity [21]: 102% | residual activity [22]: 100% | residual activity [23]: 94% | residual activity [24]: 96.3% | residual activity [25]: 135% | residual activity [26]: 95.7% | residual activity [27]: 85.3% | residual activity [28]: 92.2% | residual activity [29]: 86.2% | residual activity [30]: 117% | residual activity [31]: 100% | residual activity [32]: 84.1% | residual activity [33]: 90.9% | residual activity [34]: 104% | residual activity [35]: 101% | residual activity [36]: 95.6% | residual activity [37]: 93.9% | residual activity [38]: 94.4% | residual activity [39]: 118% | residual activity [40]: 106% | residual activity [41]: 72% | residual activity [42]: 92.4%

COc1cc2ncnc(Nc3ccc(Oc4ccccc4)cc3)c2cc1OC
residual activity [1]: 79.6% | residual activity [2]: 105% | residual activity [3]: 92.2% | residual activity [4]: 108% | residual activity [5]: 101% | residual activity [6]: 101% | residual activity [7]: 106% | residual activity [8]: 96.9% | residual activity [9]: 106% | residual activity [10]: 101% | residual activity [11]: 64.8% | residual activity [12]: 109% | residual activity [13]: 103% | residual activity [14]: 106% | residual activity [15]: 101% | residual activity [16]: 102% | residual activity [17]: 68.9% | residual activity [18]: 90.5% | residual activity [19]: 70.6% | residual activity [20]: 103% | residual activity [21]: 105% | residual activity [22]: 105% | residual activity [23]: 98.9% | residual activity [24]: 97.8% | residual activity [25]: 137% | residual activity [26]: 98.2% | residual activity [27]: 111% | residual activity [28]: 102% | residual activity [29]: 92.8% | residual activity [30]: 87.3% | residual activity [31]: 89% | residual activity [32]: -0.0383% | residual activity [33]: 88.9% | residual activity [34]: 111% | residual activity [35]: 101% | residual activity [36]: 91.6% | residual activity [37]: 105% | residual activity [38]: 98.6% | residual activity [39]: 137% | residual activity [40]: 107% | residual activity [41]: 94.7% | residual activity [42]: 87.8%
